Legend:
[1] = target: Aminopeptidase B (Homo sapiens, UniProt Q9H4A4); experiment: Compound was tested for binding affinity towards arginyl aminopeptidase
[2] = target: T1, Aminopeptidase N (Homo sapiens, UniProt P15144); experiment: Compound was tested for binding affinity towards microsomal aminopeptidase; Kii was reported
[3] = target: T1, Aminopeptidase N; experiment: Compound was tested for binding affinity towards microsomal aminopeptidase; Kis was reported
[4] = target: T1, Aminopeptidase N; experiment: Compound was tested for binding affinity towards microsomal aminopeptidase

T1 sequence (P15144 whole entry): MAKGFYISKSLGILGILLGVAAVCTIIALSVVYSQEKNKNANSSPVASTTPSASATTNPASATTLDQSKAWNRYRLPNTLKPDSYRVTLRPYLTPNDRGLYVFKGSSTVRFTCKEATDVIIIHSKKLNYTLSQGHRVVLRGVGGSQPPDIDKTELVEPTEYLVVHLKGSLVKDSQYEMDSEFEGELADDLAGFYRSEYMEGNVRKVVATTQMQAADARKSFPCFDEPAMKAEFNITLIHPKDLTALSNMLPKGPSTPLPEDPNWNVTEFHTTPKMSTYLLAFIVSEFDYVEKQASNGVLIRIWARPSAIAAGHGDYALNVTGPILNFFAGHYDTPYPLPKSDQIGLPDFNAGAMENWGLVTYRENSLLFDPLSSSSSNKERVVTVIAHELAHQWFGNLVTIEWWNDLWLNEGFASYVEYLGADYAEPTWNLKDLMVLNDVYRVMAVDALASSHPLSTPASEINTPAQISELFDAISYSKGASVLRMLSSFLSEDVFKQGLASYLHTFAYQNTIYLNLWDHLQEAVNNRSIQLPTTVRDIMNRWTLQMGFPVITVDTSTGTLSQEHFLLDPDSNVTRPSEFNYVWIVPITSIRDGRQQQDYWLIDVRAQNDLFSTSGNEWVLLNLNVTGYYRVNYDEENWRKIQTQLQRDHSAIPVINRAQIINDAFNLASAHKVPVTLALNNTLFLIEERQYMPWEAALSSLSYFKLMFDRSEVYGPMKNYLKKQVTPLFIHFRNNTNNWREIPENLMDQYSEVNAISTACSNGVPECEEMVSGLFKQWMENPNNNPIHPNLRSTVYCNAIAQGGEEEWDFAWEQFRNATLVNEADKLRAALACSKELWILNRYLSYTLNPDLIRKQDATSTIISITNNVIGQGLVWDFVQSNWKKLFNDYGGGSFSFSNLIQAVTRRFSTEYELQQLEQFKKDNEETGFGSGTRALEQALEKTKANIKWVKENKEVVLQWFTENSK
Chain of Aminopeptidase B (Q9H4A4 whole entry): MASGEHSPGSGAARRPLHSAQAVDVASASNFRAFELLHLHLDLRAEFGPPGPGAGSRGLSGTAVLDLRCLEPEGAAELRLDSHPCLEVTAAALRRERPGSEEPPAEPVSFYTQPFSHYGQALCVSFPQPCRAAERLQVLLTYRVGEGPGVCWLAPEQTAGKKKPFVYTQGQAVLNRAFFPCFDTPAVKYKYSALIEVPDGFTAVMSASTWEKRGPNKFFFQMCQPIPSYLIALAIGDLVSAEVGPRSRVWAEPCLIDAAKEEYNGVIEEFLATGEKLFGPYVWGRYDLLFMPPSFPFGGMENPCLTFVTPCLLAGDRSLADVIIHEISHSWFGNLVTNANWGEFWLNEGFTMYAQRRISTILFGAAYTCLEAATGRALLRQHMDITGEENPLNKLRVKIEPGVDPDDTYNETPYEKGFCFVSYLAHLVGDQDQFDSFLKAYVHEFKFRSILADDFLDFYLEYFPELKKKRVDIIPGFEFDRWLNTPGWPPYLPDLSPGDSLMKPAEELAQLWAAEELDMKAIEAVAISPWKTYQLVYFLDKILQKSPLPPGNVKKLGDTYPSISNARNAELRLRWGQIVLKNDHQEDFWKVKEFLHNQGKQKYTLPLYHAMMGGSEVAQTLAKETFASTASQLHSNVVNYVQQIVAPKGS

For `CC(C)C[C@H](N)C(=O)CC(Cc1ccccc1)C(=O)O` (stereo partly drawn), the Ki [1] was 0.17 µM, the Ki [2] was 260 µM and the Ki [3] was 79 µM.
`CC(C)CCNC(=O)C(=O)[C@H](N)CC(C)C` gave a Ki [4] of 18 µM and a Ki [1] of 6.5 µM.
In the case of `CC(C)C[C@H](N)C(=O)CC(C)C(=O)O` (stereo partly drawn), the Ki [1] is reported as 130 µM, the Ki [2] is reported as 940 µM and the Ki [3] is reported as 660 µM.
With `CC(C)CCNC(=O)[C@@H](O)[C@H](N)CC(C)C` the Ki [4] was 24 µM and the Ki [1] was > 300 µM.
`CC(C)CCNC(=O)C(=O)[C@@H](N)CC(C)C` was tested, and the Ki [4] was 10.5 µM and the Ki [1] was 3.2 µM.
For `CC(=O)[C@@H](N)CC(C)C`, the Ki [4] was 430 µM and the Ki [1] was > 1000 µM.
`CC(C)CCNC(=O)C(=O)C(N)Cc1ccccc1` (stereo not drawn) gave a Ki [4] of 2.5 µM and a Ki [1] of 1.5 µM.
In the case of `CC(C)CCNC(=O)[C@@H](O)[C@H](N)Cc1ccccc1`, the Ki [4] is reported as 20 µM and the Ki [1] is reported as 39 µM.

From ChEMBL document CHEMBL1125576, “alpha-Keto amide inhibitors of aminopeptidases” (J Med Chem, 1992)
